This series is described as follows: In vivo absorption of lofexidine from the sublingual cavity (pharmacokinetics, sublingual vs intravenous). Further details: species or system rabbit. The method, then:
These experiments determine the bioavailability of lofexidine after transmucosal administration to the sublingual tissue in rabbit and compare it to that after intravenous administration.
The transmucosal absorption of lofexidine was measured using an in vivo technique in rabbits. Following introduction of lidocaine local anesthesia, a catheter was placed in the marginal ear artery of the rabbit for blood sample collection. For intravenous administration, a catheter was placed in the marginal ear vein of the rabbit and lofexidine hydrochloride aqueous solution (0.1 mL) was administered; a sterile drug solution was prepared by filtration (double 0.22 μm filters). A dose of 1 mg/kg lofexidine was injected into the marginal ear vein cannula followed by a 0.1 mL flush with 10% (v/v) heparin/normal saline solution to keep the cannula patent.
For sublingual administration, the lofexidine dose (1 mg/kg, 0.1 mL) of the lofexidine formulation was applied to the sublingual mucosa of the rabbit.
Aliquot parts of 1 mL blood samples were collected at predetermined time points, collected into pre-heparinized tubes and immediately placed on ice. Plasma was separated by centrifugation at 3000 rpm for 10 min, placed in polypropylene tubes, and frozen at −20° C. until the time of analysis.
Bioavailability of sublingually administered drug was calculated by comparing the plasma drug concentration between sublingual and intravenous delivery routes and expressed as a percentage of the intravenous bioavailability.
The formulation instilled into the sublingual area of the rabbits in this experiment had the following composition: • Lofexidine hydrochloride 6000 mg • Isopropanol 2 mL • Phosphate buffer (0.05 M, pH 6)
The lofexidine is dissolved in the isopropanol and the phosphate buffer to make the volume up to 200 mL.
The internal standard (IS) solution was prepared by dissolving d^4-lofexidine in a methanol:water (50:50) mixture to get a (1000 ng/mL) concentration. Plasma samples (50 μL) were spiked with IS solution (10 μL), followed by vortex mixing for 1 minute. The mixture was mixed with acetonitrile (50 μL) to precipitate plasma proteins and allowed to vortex for another minute. After centrifugation for 10 minute at 10,000 rpm, the supernatant was collected into HPLC vials in preparation for analysis by Ultra Performance Liquid Chromatography Mass Spectroscopy (UPLC/MS) system.
All analytical procedures were performed using a Waters Acquity® Ultra UPLC/MS. An Acquity UPLC BEH Shield RP18 (2.1×100 mm) column (Waters) was used to separate the chemical components at 40° C. The flow rate was 0.3 mL/min of two mobile phases, (A) made of 5 mM ammonium acetate (pH 4) and acetonitrile (90:10) and (B) of acetonitrile, 5 mM ammonium acetate (pH 4) (90:10). The mass spectrometer was operated in the positive electrospray ionization (ESI) mode. The capillary voltage and cone voltage were maintained at 0.6 kV and 35 V, respectively. The source temperature and desolvation temperature were set at 100 and 350° C., respectively. Nitrogen was used as both the cone gas (50 L/h) and the desolvation gas (700 L/h). Mass chromatograms and mass spectral data were acquired and processed by MassLynx software (Waters).

Setting [1] is: rabbit, sublingual administration, 1 mg/kg single dose, rabbits (n = 3), plasma, average.

The bioavailability is the share of a dose that reaches the circulation, judged against a reference dose that is usually intravenous. One may read the Tmax as the time from dosing to the highest level. For orientation: Cmax means the highest concentration seen after dosing. One may read the half-life as the time in which the quantity being followed falls by half. With `CC(Oc1c(Cl)cccc1Cl)C1=NCCN1` (stereo not drawn) [lofexidine, 2-[1-(2,6 dichlorophenoxy)ethyl]-4,5-dihydro-1H-Imidazole], the bioavailability (rabbit, other: sublingual (transmucosal), sublingual vs intravenous, 1 mg/kg, rabbits, from areas under the plasma concentration versus time curves, read-out: bioavailability (of the administered dose, relative to intravenous)) was around 80%. For the same compound, the time to peak (Tmax) (rabbit, sublingual administration, 1 mg/kg single dose, rabbits (n = 3), plasma) was 10 min. Further, under setting [1], the maximum concentration (Cmax) amounted to 392 ± 127 ng/mL and the half-life worked out at 75 ± 2.7 min. Besides, the “time of peak plasma concentration following transmucosal administration” value (sublingual route, 1 mg/kg, rabbits) is “approximately 10 minutes”. The “absorption following transmucosal administration through the sublingual route” value (sublingual, 1 mg/kg, rabbits, comparing AUCs with intravenous) is “rapidly and completely absorbed”.

These data come from patent US20130095174A1, “Compositions and Methods for Transmucosal Delivery of Lofexidine” (US WORLDMEDS, LLC, priority 2008, published 2013).
